# Laboratory results as given in paper PMC10114720.
# Experiments:
# [1] = PDMS sheets cleaned by Soxhlet with ethyl acetate; batch shaking method with a mixture of all chemicals at several PDMS-mass to water-volume ratios and spiked levels; vials shaken on an orbital shaker at room temperature in the dark, sampled at two equilibration times; PDMS extracts and water quantified by LC-HRMS (Orbitrap); D from the slope of C_PDMS on C_w or their ratio; value is the mean over that pH's experiments (individual experiments in the SI's concentrations table), sd is the table's stdev; details: PDMS (polydimethylsiloxane silicone sheet), phosphate buffer at three target pH values (the paper's methods)
# [2] = neutral chemical: log K is the mean of log D over all measurements at the three pH values (D shown independent of pH, paired t-test); sd is the table's stddev. PDMS sheets cleaned by Soxhlet with ethyl acetate; batch shaking method with a mixture of all chemicals at several PDMS-mass to water-volume ratios and spiked levels; vials shaken on an orbital shaker at room temperature in the dark, sampled at two equilibration times; PDMS extracts and water quantified by LC-HRMS (Orbitrap); D from the slope of C_PDMS on C_w or their ratio; details: PDMS (polydimethylsiloxane silicone sheet); phosphate buffer at three target pH values (the paper's methods)
# [3] = monoprotic acid or base: log K of the neutral species extrapolated from the linear regression of D on the neutral fraction (from pKa and pH; the paper's eq. for monoprotic IOCs), the slope giving K of the neutral species; replicates column holds the table's 95% confidence limits. PDMS sheets cleaned by Soxhlet with ethyl acetate; batch shaking method with a mixture of all chemicals at several PDMS-mass to water-volume ratios and spiked levels; vials shaken on an orbital shaker at room temperature in the dark, sampled at two equilibration times; PDMS extracts and water quantified by LC-HRMS (Orbitrap); D from the slope of C_PDMS on C_w or their ratio; details: PDMS (polydimethylsiloxane silicone sheet); phosphate buffer at three target pH values (the paper's methods)
Structure (SMILES),log D PDMS/w (apparent distribution ratio at the stated pH) ([1]; pH 3),log D PDMS/w (apparent distribution ratio at the stated pH) ([1]; pH 7.4),log K PDMS/w (neutral species) [2],log K PDMS/w (neutral species) [3],log D PDMS/w (apparent distribution ratio at the stated pH) ([1]; pH 11.5)
N#CSCSc1nc2ccccc2s1,1.914 log units; D and K as the pape,1.821 log units; D and K as the pape,1.857 log units; D and K as the pape,1.892 log units; D and K as the pape,–
Cc1c(C=O)c(=O)n(-c2ccccc2)n1C,-0.2614 log units; D and K as the pape,-0.1813 log units; D and K as the pape,-0.2009 log units; D and K as the pape,–,-0.1629 log units; D and K as the pape
O=P(c1ccccc1)(c1ccccc1)c1ccccc1,2.588 log units; D and K as the pape,2.511 log units; D and K as the pape,2.562 log units; D and K as the pape,–,2.589 log units; D and K as the pape
Cc1cccc(C)c1N(Cn1cccn1)C(=O)CS(C)=O (stereo not shown),0.5745 log units; D and K as the pape,0.5892 log units; D and K as the pape,0.5949 log units; D and K as the pape,–,0.6192 log units; D and K as the pape
